What was measured:
Format in all cases: cell-based
[1] = test system: general bacterium on the surface of beef; experiment: Number of bacterium on the surface of beef treated with bactericide; settings: 5 minutes immersion, preserved at 4° C.
Description: 50 ml of each of bactericides was charged in a vessel, and then 15 g of beef (block) was immersed in the bactericide, and allowed to stand at room temperature (surface sterilization). After 5 minutes, the bactericide was removed, and only the beef was preserved in the vessel at 4° C. After certain period ((1) after one day, (2) after three days, (3) after six days), 25 ml of physiological saline was added to the vessel containing the beef, and shaked. The number of the bacterium cells liberated from the beef into the physiological saline was counted. It was confirmed according to preliminary experiments that the number of the bacterium cells per one gram of the beef existing on the surface of the beef before sterilization treatment was 10 or less. Sterilized water and sodium hypochlorite were also examined.

[2] = test system: Staphylococcus aureus; experiment: Test of bactericidal power of bactericides after treating beef (block); settings: 5 min
Description: (§1) 100 ml of each of bactericides shown in Table 25 was charged into a vessel. 21 g of beef (block) was immersed in the bactericide, and allowed to stand at room temperature. After 24 hours, the beef was removed, and general bacterium (bacterium liberated from the beef) present in the bactericide were removed using a sterilized filter. 30 μl of bacteria suspension of Staphylococcus aureus or Salmonella enteritidis was added to 2 ml of the bactericide after used for the treatment of the beef. After five minutes, the number of bacterium in the bactericide was counted. As for 0.01% sodium hypochlorite, a similar test was conducted, and the results were compared.

[3] = test system: Salmonella enteritidis; experiment: as above; settings: 5 min
Description: as §1

[4] = test system: Staphylococcus aureus; experiment: Test of persistency of bactericidal power on stainless steel
Description: (§2) Each of bactericide shown in Table 8 was sprayed on a sterilized stainless steel plate (15 μl/cm^2), and allowed to stand for seven days in a sterilized room to be dried. Each of the bacteria suspension previously cultured in a similar manner to that described above was diluted with physiological saline. Then, 10 μl of the diluted suspension was spread on the stainless steel. After allowed to stand for 10 minutes, bacterium on the stainless steel were wiped with absorbent cotton, and liberated into physiological saline. Then, visible count was counted. For comparison, 70% ethanol was used as a conventional bactericide. Strong bactericidal power of each bactericide of examples containing both eucalyptus extract and chitosan was maintained, even after elapse of seven days, on the stainless steel on which it was spread. The bactericidal power was stronger than that of bactericides containing only eucalyptus extract (Comparative Examples 1 to 3) or a bactericide containing only chitosan (Comparative Example 4).
(§3) Persistency of bactericidal power of the bactericides shown in Table 16 was evaluated in a similar manner to that of Test Example 3 (allowed to stand for one month). After elapse of one month from spraying of the bactericide, bactericidal power of the bactericide containing glycerol fatty acid ester in addition to eucalyptus extract and chitosan (Example 4) was stronger than that of bactericides containing no glycerol fatty acid ester (Comparative Example 5).

[5] = test system: Escherichia coli; experiment: as above
Description: as §2, §3

[6] = test system: Salmonella enteritidis; experiment: as above
Description: as §2, §3

[7] = test system: MRSA; experiment: as above
Description: as §2, §3

[8] = test system: Bacillus subtilis; experiment: as above
Description: as §2, §3

[9] = test system: Trichophyton mentagrphytes; experiment: Test of activity against Trichophyton mentagrphytes (paper disk, block circle); settings: 8 mm paper disk with 25 μl, dried 24 hours; cultured at 28° C. for five days
Description: A paper disk having a diameter of 8 mm that was previously subjected to dry heat sterilization, was impregnated with 25 μl of each of fungicides shown in Table 8 and allowed to stand for 24 hours to be dried. The paper disk was put on agar medium on which spore suspension of Trichophyton […] previously prepared was spread, and cultured at 28° C. for five days. […] No block circle was formed when a fungicide containing only chitosan (Comparative Example 4) was used.

[10] = test system: Salmonella enteritidis IF003313; experiment: Test of bactericidal power of bactericides mixed with meat (beef) extract
Description: (§4) It was evaluated whether bactericidal power was lowered when the bactericides shown in Table 20 were mixed with beef extract (Wako Junyaku) according to the following method. For comparison, sodium hypochlorite was also evaluated. Strains used herein were Staphylococcus aureus IF012732 and Salmonella enteritidis IF003313.
(§5) One ml of each of bactericides shown in Table 20 and one ml of 5% beef extract (dissolved in sterilized water) were mixed at a ratio of one to one, and allowed to stand at a room temperature. After 10 minutes, 10 μl of bacteria suspension previously prepared was added to each of the bactericides and the mixture, and allowed to stand after stirred. Change of number of bacteria in the mixture solution was determined (one minute, five minutes and 10 minutes after addition of bacteria). According to previous experiments, it was confirmed that general viable count was 10 or less per one ml of 5% beef extract. As shown in Table 21 and Table 22, when 0.02% of sodium hypochlorite was mixed with a beef extract, bactericidal power thereof was lowered.

[11] = test system: Staphylococcus aureus IF012732; experiment: as above
Description: as §4, §5
The bactericides shown in Table 23 were examined for bactericidal power in a similar manner to that of Test Example 7.

[12] = treatment of beef done (24 hours)
[13] = mixing treatment of beef extract and bactericide (10 min) done, 1 min
[14] = mixing treatment of beef extract and bactericide (10 min) done, 5 min
[15] = mixing treatment of beef extract and bactericide (10 min) done, 10 min
[16] = mixing treatment with beef extract none, 1 min
[17] = mixing treatment with beef extract none, 5 min
[18] = mixing treatment with beef extract none, 10 min

What does the source list for `OCl` [0.01% Sodium hypochlorite, sodium hypochlorite]?
Number of general bacterium ([1]; After 3 days): 1.4 × 10^5 Number/g; Number of general bacterium ([1]; After 6 days): 3.4 × 10^7 Number/g; Number of general bacterium ([1]; After one day): 6.7 × 10^2 Number/g; Viable count [2, 12]: 1.8 × 10^5 Number/ml; Viable count ([2]; treatment of beef none): <1000 Number/ml; Viable count [3, 12]: 1.5 × 10^5 Number/ml; Viable count ([3]; treatment of beef none): <1000 Number/ml

With `CCO` [70% Ethanol, Ethanol] as the compound, how does the “Viable count (After 7 days)” value [4] read?
The value was 3.5 × 10^6 Number/100 cm^2.

And the “Viable count (After 7 days)” value [5]?
Its value is 2.2 × 10^6 Number/100 cm^2.

And the “Viable count (After 7 days)” value [6]?
Its value is 4.5 × 10^6 Number/100 cm^2.

And the “Viable count (After 7 days)” value [7]?
Its value is 1.2 × 10^6 Number/100 cm^2.

And the “Viable count (After 7 days)” value [8]?
The value was 3.0 × 10^6 Number/100 cm^2.

What about the “Diameter of block circle” value [9] of the same compound?
The value was “None”.

For `[Na+].[O-]Cl` [0.02% Sodium hypochloryte, sodium hypochlorite], which Viable count [10, 13] is on record?
The Viable count was 4.5 × 10^5 Number/ml.

What about the Viable count [10, 14] of the same compound?
The Viable count was 4.3 × 10^5 Number/ml.

And the Viable count [10, 15]?
The Viable count was 4.3 × 10^5 Number/ml.

And the Viable count [10, 16]?
Its Viable count is under 200 Number/ml.

And the Viable count [10, 17]?
The Viable count was under 200 Number/ml.

What about the Viable count [10, 18] of the same compound?
The Viable count was under 200 Number/ml.

What about the Viable count [11, 13] of the same compound?
The Viable count was 6.5 × 10^6 Number/ml.

What about the Viable count [11, 14] of the same compound?
Its Viable count is 6.5 × 10^6 Number/ml.

And the Viable count [11, 15]?
Its Viable count is 6.4 × 10^6 Number/ml.

What about the Viable count [11, 16] of the same compound?
Its Viable count is under 200 Number/ml.

And the Viable count [11, 17]?
The Viable count was under 200 Number/ml.

And the Viable count [11, 18]?
Its Viable count is under 200 Number/ml.

Reference: patent US6352727B1, “Bactericides” (Oji Paper Co., Ltd., priority 1998, dated 2002)
